In patent US20080272062A1, “BROAD SPECTRUM ANTIMICROBIAL PURIFICATION DEVICES AND METHODS FOR PURIFYING FLUIDS” (WATER VISIONS INTERNATIONAL, INC., priority 2006, published 2008):
Structures can show the parent of a compound that is named as a salt. Where two headings read alike, the source gives them in different places. Marks after values point to notes of the source that are not given here.

Experiments:
E. coli/bacteria = test: Pumped flow through chlorhexidine dihydrate treatment device, Aerobic Plate Count; type: cell-based
Experimental: Dechlorinated city of Atlanta tap water was inoculated with a culture of E. coli/bacteria and pumped through a 0.25 inch chlorhexidine dihvdrate treatment device at a rate of 1 to 2 L/min up to 80 L. Bacterial recovery was determined by Aerobic Plate Count and is shown in Table 9.
Accordingly, the reaction of chlorhexidine dihydrate appears to be of a “catalytic” nature. Conversely, typical applications involving soluble chlorhexidine gluconate result in its consumption and approach a second-order reaction. The same is true for most other known antimicrobial agents. Thus, chlorhexidine dehydrate is particularly suitable for use as a purification material.

Dry bulk density = type: physicochemical; details: packed in 50 ml graduated cylinder, vortex agitated
Experimental: The materials were loosely packed into tared 50 ml graduated cylinders and agitated with a vortex mixer to further pack the materials in the cylinders. The weight of the material was determined and then divided by the volume of material to determine the bulk density. The larger value for the dihydrate is due to the significant amorphous fraction of the material that is not present in the pure chlorhexidine. The amorphous particles are smaller than crystals and fill the voids between crystals allowing for a greater packing density of particles, […]

A. niger = test: Gravity flow of inoculum through chlorhexidine dihydrate particle bed; type: cell-based
Experimental: (§1) Columns having a length of 30.48 cm and diameter of 0.75 in were packed with particle beds comprising chlorhexidine dihydrate having lengths of 1.9 cm, 2.5 cm, and 4.1 cm. A 40 mL mixture of inocculum (comprising 35 million B. subtilis, 91 million E. coli, 130 million R. terrigena, and 100 million A. niger) and water was passed by gravity through the chlorhexidine dihydrate particle bed.

B. subtilis = test: as above; type: cell-based
Experimental: as §1

R. terrigena = test: as above; type: cell-based
Experimental: as §1

E. coli [1] = test: as above; type: cell-based
Experimental: as §1

all microorganisms = test: Treatment of influent contaminated water stream with particle bed of insoluble chlorhexidine dihydrate; type: cell-based
From the text: The composition of chlorhexidine dihydrate produced mortality in all microorganisms with a minimum or greater mean 10-log reduction upon treatment of an influent contaminated water stream with a particle bed of insoluble chlorhexidine dihydrate. While it is known that soluble chlorhexidine salts are bactericidal for some microorganisms, the purification materials embodied herein require insoluble antimicrobial agents. Thus, the previously known chlorhexidine salts are unacceptable for use in the purification materials embodied herein.

[2] = Solubility in solvents (aliquot dried and weighed); type: physicochemical; details: 3 days
Porosity to water = type: physicochemical; details: water head 25 cm, cross-sectional area 2.775 cm^2
Experimental: To measure the porosity of the materials to water, samples were placed in a ¾″ inner diameter plastic tube fitted with a plug with a hole in the middle. A wire mesh, on top of the plug, prevented the powder from passing through the plug. Deionized water was passed through the sample until the material was sufficiently packed and a second wire mesh was positioned on top of the sample. Water was added to the tube to a height of 25 centimeters above the plug of material. This height was maintained to plus or minus one cm in order to maintain a constant pressure. The porosity was calculated by calculating the volumetric flow rate (volume/time), multiplying by the cross-sectional area (2.775 cm^2), and dividing by the thickness. Accordingly, the rate should increase proportionally with increases in the cross section and decreases in the thickness.

[3] = Density by suspension in binary solvent system; type: physicochemical; details: melted glassy chunk, chlorobenzene/carbon tetrachloride
From the text: Chlorhexidine and chlorhexidine dihydrate were melted on a glass slide heated on a hot plate. These glassy materials easily fractured into large chunks. One of these chunks from each sample was used to determine the density of the material. Using a binary solvent system consisting of chlorobenzene (density 1.102 g/cc) and carbon tetrachloride (density […]), the chunk of material was suspended. The solution was adjusted until the particle remained hovering in mid solution without floating to the surface or sinking to the bottom. The resulting solution was weighed in a 10 mL volumetric flask and the density was calculated. The procedure was repeated at least 4 times for each sample.

[4] = Temperature dependence of solubility in water; type: physicochemical
Experimental: The effect of temperature on the solubility of chlorhexidine dihydrate in water was determined by placing a sample of chlorhexidine dihydrate in a 100 mL round bottom flask with 50 mL of deionized water. The round bottom flask contained a stir bar and was placed in an oil bath on a hot plate. The solution was gradually warmed. Aliquots were taken every 15° C. The aliquot was taken from the solution using of a syringe fitted with a micropore filter (Whatman fiberglass filter GF/D, pore size 2.7). The filter separated the solution from the suspended material. The solution was dried in a weigh boat at 60° C. overnight.

[5] = Solubility in solvents (aliquot dried and weighed); type: physicochemical; details: for Solubility: 7 days
Experimental: A sample of material was placed in a small vial with a few mL of solvent. The solution was stirred by shaking for several hours and then allowed to sit for a week equilibrating.
A 1 mL aliquot drawn from the solution using an Eppendorf pipette was placed in a weigh boat and dried in an oven. The dried sample was weighed. Measurements of the alcohol and water solvents were taken after three hours of mixing and again after a week. At the three hour measurement, it was necessary to centrifuge the sample in order to separate the solvent solution from the particulate matter.

[6] = Surface energy, contact angle on dip-coated glass slides; type: physicochemical; design: unit not given here
Experimental: Glass slides were cleaned in hot chromic acid, deionized water and blown dry. Two slides were treated with hexamethyldisilazane to lower their surface energy. Solutions of chlorhexidine dihydrate in chloroform/methanol and chlorhexidine in methylene chloride/methanol were prepared. The slides were coated using a dip-coater with a dipping speed of 2.8 mm/min. […] The untreated slides produced very uniform thin films.

[7] = cited from earlier work
E. coli [8] = test: Gravity flow of inoculum through chlorhexidine base particle bed; type: cell-based; details: 40 mL, 6.4 million E. coli, 54 minutes
Experimental: A 40 mL mixture of inocculum comprising 6.4 million E. coli and water was passed by gravity flow through a chlorhexidine base particle bed. It took 54 minutes for the fluid to pass through the particle bed.

[9] = bed 2.5 cm, flow time 2.0 minutes
[10] = bed 4.1 cm, flow time 1.5 hours
[11] = Water/Ethanol (50:50, 30.0 dyne/cm)
[12] = Water/Ethanol (70:30, 36.1 dyne/cm)
[13] = Water/Ethanol (90:10, 51.3 dyne/cm)

N=C(NCCCCCCNC(=N)NC(=N)Nc1ccc(Cl)cc1)NC(=N)Nc1ccc(Cl)cc1.O.O [Chlorhexidine dihydrate, chlorhexidine dihydrate]
inactivation of E. coli (E. coli/bacteria; 1 to 2 L/min up to 80 L, 0.25 inch thickness disc): 100% | Total Aerobic Plate Count (E. coli/bacteria; 20 L run through device, untreated 8.6 × 10^8, 1 to 2 L/min): 10 # colonies/mL | Total Aerobic Plate Count (E. coli/bacteria; 40 L run through device): <10 # colonies/mL | Total Aerobic Plate Count (E. coli/bacteria; 60 L run through device): <10 # colonies/mL | Total Aerobic Plate Count (E. coli/bacteria; 80 L run through device): <10 # colonies/mL | Bulk Density (Dry bulk density): 0.70 g/cc | % Reduction (A. niger; bed 1.9 cm, flow time 1.0 hour): >99.9% | Effluent (1.9 cm) (A. niger; bed 1.9 cm, inoculum 100 × 10^6, flow time 1.0 hour): <1000 | % Reduction (A. niger; [9]): 99.2% | Effluent (2.5 cm) (A. niger; bed 2.5 cm, inoculum 100 × 10^6, flow time 2.0 minutes): 8000 | % Reduction (A. niger; [10]): >99.9% | Effluent (4.1 cm) (A. niger; bed 4.1 cm, inoculum 100 × 10^6, flow time 1.5 hours): <1000 | % Reduction (B. subtilis; bed 1.9 cm, flow time 1.0 hour): >99.997% | Effluent (1.9 cm) (B. subtilis; bed 1.9 cm, inoculum 35 × 10^6, flow time 1.0 hour): <1000 | % Reduction (B. subtilis; [9]): 99.6% | Effluent (2.5 cm) (B. subtilis; bed 2.5 cm, inoculum 35 × 10^6, flow time 2.0 minutes): 14 × 10^5 | % Reduction (B. subtilis; [10]): >99.997% | Effluent (4.1 cm) (B. subtilis; bed 4.1 cm, inoculum 35 × 10^6, flow time 1.5 hours): <1000 | % Reduction (R. terrigena; bed 1.9 cm, flow time 1.0 hour): >99.999% | Effluent (1.9 cm) (R. terrigena; bed 1.9 cm, inoculum 130 × 10^6, flow time 1.0 hour): <1000 | % Reduction (R. terrigena; [9]): >99.999% | Effluent (2.5 cm) (R. terrigena; bed 2.5 cm, inoculum 130 × 10^6, flow time 2.0 minutes): <1000 | % Reduction (R. terrigena; [10]): >99.999% | Effluent (4.1 cm) (R. terrigena; bed 4.1 cm, inoculum 130 × 10^6, flow time 1.5 hours): <1000 | % Reduction (E. coli [1]; bed 1.9 cm, flow time 1.0 hour): >99.999% | Effluent (1.9 cm) (E. coli [1]; bed 1.9 cm, inoculum 91 × 10^6, flow time 1.0 hour): <1000 | % Reduction (E. coli [1]; [9]): >99.999% | Effluent (2.5 cm) (E. coli [1]; bed 2.5 cm, inoculum 91 × 10^6, flow time 2.0 minutes): <1000 | % Reduction (E. coli [1]; [10]): >99.999% | Effluent (4.1 cm) (E. coli [1]; bed 4.1 cm, inoculum 91 × 10^6, flow time 1.5 hours): <1000 | mean log reduction (mortality in all microorganisms) (all microorganisms): ≥ 10 log | Solubility ([2]; Ethanol): 1700 µg/mL | Solubility ([2]; Iso-propanol): 900 µg/mL | Solubility ([2]; Methanol): 3600 µg/mL | Solubility ([2]; Water): <500 µg/mL | Porosity (Porosity to water): 7.55 mL cm^2/min/cm | Density [3]: 1.266 ± .001 g/cc | Solubility in water ([4]; 30 ° C.): 460 µg/mL | Solubility in water ([4]; 45 ° C.): 740 µg/mL | Solubility in water ([4]; 60 ° C.): 780 µg/mL | Solubility in water ([4]; 75 ° C.): 920 µg/mL | Solubility in water ([4]; 90 ° C.): 890 µg/mL | Solubility (in words) ([4]; hot and cold water): very limited solubility | Solubility ([5]; Chloroform): 5600 µg/mL | Solubility ([5]; Ethanol): 600 µg/mL | Solubility ([5]; Ethyl Acetate): 10000 µg/mL | Solubility ([5]; Iso-propanol): 400 µg/mL | Solubility ([5]; MIBK): 21100 µg/mL | Solubility ([5]; Methanol): 2800 µg/mL | Solubility ([5]; Methylene Chloride): 5600 µg/mL | Solubility ([5]; Water): <400 µg/mL | Solubility (in words) ([5]; hot methanol, chloroform, methylene chloride, and ketones): appreciable solubility | Mean Contact Angle ([6]; Water (72.2 dyne/cm)): 7.08 | Mean Contact Angle [6, 11]: 0 | Mean Contact Angle [6, 12]: 18.44 | Mean Contact Angle [6, 13]: 13.08

[H]/N=C(\N/C(=N/[H])NCCCCCCNC(=N)NC(=N)Nc1ccc(Cl)cc1)Nc1ccc(Cl)cc1 [Chlorhexidine hydrochloride, chlorhexidine hydrochloride]
Bulk Density (Dry bulk density): 0.15 g/cc

[H]/N=C(\N/C(=N/[H])NCCCCCCNC(=N)NC(=N)Nc1ccc(Cl)cc1)Nc1ccc(Cl)cc1 [Chlorhexidine, N,N″Bis(4-chlorophenyl)-3,12-diimino-2,4,11,13-tetrazatetradecanediimideamide, reference compound]
Solubility ([7]; reported by Block, Disinfection, Sterilization, and Preservation, 2001): 0.0008% | Solubility ([7]; reported by Merck Index): 0.08% | Bulk Density (Dry bulk density): 0.64 g/cc | Porosity (Porosity to water): 3.60 mL cm^2/min/cm | reduction in E. coli (E. coli [8]): greater than 99.999% | Density [3]: 1.270 ± .001 g/cc | Mean Contact Angle ([6]; Water (72.2 dyne/cm)): 10.28 | Mean Contact Angle [6, 11]: 0 | Mean Contact Angle [6, 12]: 13.5 | Mean Contact Angle [6, 13]: 15.3
